Measurements from ChEMBL document CHEMBL1159021, “Antitumor agents, 127. Bruceoside C, a new cytotoxic quassinoid glucoside, and related compounds from Brucea javanica” (1992).
In brackets after ≈: the same amount, converted by molar mass.

How the values were obtained:
Format in all cases: functional
Details in all cases: read-out: ED50 (the source's name)
KB = assay: Cytotoxicity against human KB cells
HCT-8 = assay: Cytotoxicity against human HCT8 cells
A549 = assay: Cytotoxicity against human A549 cells
P388 = assay: Cytotoxicity against mouse P388 cells
[1] = Cytotoxicity against human RPMI cells
TE-671 = assay: Cytotoxicity against human TE671 cells

## COC(=O)[C@@]12OC[C@]34[C@H](OC(=O)C[C@@H]13)[C@H](OC(=O)C=C(C)C)[C@H]1C(C)=C(O[C@@H]3O[C@H](CO)[C@@H](O)[C@H](O)[C@H]3O)C(=O)C[C@]1(C)[C@H]4[C@@H](O)[C@@H]2O [BRUCEOSIDE C]
KB
  EC50: < 0.1 µg/mL
HCT-8
  EC50: 4.51 µg/mL (≈ 6.61 µM)
A549
  EC50: 0.44 µg/mL (≈ 0.645 µM)
P388
  EC50: 5.11 µg/mL (≈ 7.49 µM)
[1]
  EC50: < 0.1 µg/mL
TE-671
  EC50: 0.29 µg/mL (≈ 0.425 µM)
